Values quoted from earlier work as cited in patent US6605639B1, “Ligands of nuclear receptor” (Nuclear Receptor Research, Ltd., priority 1998, dated 2003).

How the values were obtained:
patients = conditions: at the normal dose; cited from earlier work
[1] = tested on: hereditary obese diabetic mice ob/ob and db/db; conditions: oral; cited from earlier work

Row | SMILES | patients with hepatopathy (patients) | blood glucose levels, serum neutral fat levels and serum insulin levels [1]
1 | Cc1c(C)c2c(c(C)c1O)CCC(C)(COc1ccc(CC3SC(=O)NC3=O)cc1)O2 (centres unmarked) [troglitazone] | about 2% | –
2 | Cc1cc2c(cc1C1(c3ccc(C(=O)O)cn3)CC1)C(C)(C)CCC2(C)C [LG100268] | – | drastically lower
